This assay has as its target T1, angiotensin converting enzyme (ACE, EC 3.4.15.1) (Oryctolagus cuniculus, UniProt P12822).
T1 sequence (P12822 34-1310): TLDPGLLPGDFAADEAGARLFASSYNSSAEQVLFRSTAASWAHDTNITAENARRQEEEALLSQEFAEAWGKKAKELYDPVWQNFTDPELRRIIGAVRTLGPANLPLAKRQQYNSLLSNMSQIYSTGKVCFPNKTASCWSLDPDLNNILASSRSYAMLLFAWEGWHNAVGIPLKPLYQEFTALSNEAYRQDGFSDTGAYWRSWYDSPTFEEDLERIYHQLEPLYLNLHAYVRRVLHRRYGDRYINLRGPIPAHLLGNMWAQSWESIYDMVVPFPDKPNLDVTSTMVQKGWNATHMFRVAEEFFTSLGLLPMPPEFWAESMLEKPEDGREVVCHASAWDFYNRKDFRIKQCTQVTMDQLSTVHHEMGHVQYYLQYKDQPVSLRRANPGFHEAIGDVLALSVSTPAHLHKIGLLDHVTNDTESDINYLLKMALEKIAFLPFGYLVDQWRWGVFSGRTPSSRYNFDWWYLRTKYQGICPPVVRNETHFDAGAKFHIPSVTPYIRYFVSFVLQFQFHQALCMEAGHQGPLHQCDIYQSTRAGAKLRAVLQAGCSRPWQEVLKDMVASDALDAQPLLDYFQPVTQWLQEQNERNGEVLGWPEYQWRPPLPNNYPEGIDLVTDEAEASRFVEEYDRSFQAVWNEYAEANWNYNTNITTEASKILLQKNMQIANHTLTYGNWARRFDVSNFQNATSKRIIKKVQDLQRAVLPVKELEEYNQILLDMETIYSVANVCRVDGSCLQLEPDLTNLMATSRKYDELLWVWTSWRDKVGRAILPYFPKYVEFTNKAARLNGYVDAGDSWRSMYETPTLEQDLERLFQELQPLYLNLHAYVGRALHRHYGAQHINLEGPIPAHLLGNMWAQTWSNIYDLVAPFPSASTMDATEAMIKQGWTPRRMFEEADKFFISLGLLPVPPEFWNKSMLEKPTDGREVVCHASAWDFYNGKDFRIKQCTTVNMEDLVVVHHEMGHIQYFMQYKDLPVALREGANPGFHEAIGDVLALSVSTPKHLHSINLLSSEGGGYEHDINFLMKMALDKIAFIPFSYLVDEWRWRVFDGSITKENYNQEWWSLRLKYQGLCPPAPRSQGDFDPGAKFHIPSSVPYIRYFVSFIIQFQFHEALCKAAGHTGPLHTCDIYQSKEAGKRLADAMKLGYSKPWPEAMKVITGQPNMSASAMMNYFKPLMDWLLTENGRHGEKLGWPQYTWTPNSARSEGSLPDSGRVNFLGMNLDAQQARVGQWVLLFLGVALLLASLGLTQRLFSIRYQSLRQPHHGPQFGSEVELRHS
Format: biochemical. Here is the method: The inhibitory activity of the angiotensin converting enzyme (ACE) is measured in vitro according to the method of D. W. Cushman and H. S. Cheung (Spectrophotometric assay and properties of the angiotensin-converting enzyme of rabbit lung. Biochemical Pharmacology, 1971, 20: 1637-1648), later on modified by Y. K. Kim, S. Yoon, D. Y. Yu, B. Lönnerdal and B. H. Cheung (Novel angiotensin-I-converting enzyme inhibitory peptides derived from recombinant human αs1-casein expressed in Escherichia coli, Journal of Dairy Research 1999, 66, 431-439).
The substrate hippuryl histidyl leucine (HHL, Sigma Chemicals Co., St. Louis, Mo., USA) is dissolved in a 0.1 M borate buffer with 0.3 M NaCl pH 8.3 to obtain a final concentration of 5 mM. To 100 μl of substrate are added 40 μl of each of the samples whose ACEI activity it is wished to determine. The ACE enzyme (EC 3.4.15.1, Sigma) is added, dissolved in 50% glycerol and diluted 1/10 in bidistilled water at the moment of conducting the assay. The reaction is carried out at 37° C. for 30 minutes in a water-bath. The enzyme is deactivated by lowering the pH with 150 μl of 1 N HCl. The hippuric acid formed is extracted with 1000 μl of ethyl acetate. Following vortex stirring for 20 seconds, it is centrifuged at 4000 rpm for 10 minutes at room temperature. 750 μl of the organic phase are taken and evaporated by heating at 95° C. for 10 minutes. The hippuric acid residue is redissolved in 800 μl of bidistilled water and, following stirring for 20 seconds, the absorbency at 228 nm is measured in a Dur-70 spectrophotometer from Beckman Instruments, Inc., Fullerton, USA.
In order to calculate the percentage of ACEI activity, the following formula is used
The blank is used for correcting the background absorbency. This contains substrate, enzyme and 20 μl of bidistilled water in place of the sample, and the reaction is halted at zero time. The control implies a hundred percent of the enzymatic action on the substrate in the absence of inhibitors and contains 20 μl of water in place of the sample and is incubated the same time as the sample.
The results are presented as the IC50 (μM or μg/ml) or concentration at which 50% of the enzyme's activity is inhibited. The concentration of protein is determined by means of the bicinchonomic acid (BCA) assay (Pierce, Rockford, Ill., USA) using bovine seroalbumin as reference.

pIC50: −log10 of the molar value. Residues, ends and D or L forms follow the SMILES beside them.

For orientation: pIC50 means the negative decadic logarithm of the IC50, by convention in mol/L.

For the compound `CC[C@H](C)[C@H](NC(=O)[C@@H]1CCCN1C(=O)[C@H](Cc1ccc(O)cc1)NC(=O)[C@H](CCCNC(=N)N)NC(=O)[C@H](CCC(=O)O)NC(=O)[C@H](CCC(=O)O)NC(=O)[C@H](C)NC(=O)[C@@H](N)Cc1ccc(O)cc1)C(=O)N[C@@H](CC(C)C)C(=O)O` [SEQ. ID. N^o 6] (H-YAEERYPIL-OH; N-terminus and C-terminus assumed), the “ACEI activity in vitro (in words)” value (peptides) is “potent ACEI activity”. For the same compound, under “read-out: ACEI activity IC50, synthetic peptides”, the negative-log IC50 (pIC50) is 5.33.

Values taken from patent US8227207B2, “Bioactive peptides derived from the proteins of egg white by means of enzymatic hydrolysis” (Consejo Superior de Investigaciones Cientifcas, priority 2004, dated 2012).
